Measurements published in patent publication US5493007A, “Platelet aggregation inhibitors having high specificity for GPIIBIIIA” (Genentech, Inc., priority 1994, dated 1996).
“And” between values parts separate entries of the source, which are not always exact repeats. Equal entries are not always repeated. *1 amine or outer side, *2 acyl side, *3 side chain or, on linkers, in order; H or OH if unused. Where a SMILES comes first, the peptide text is derived from it. Bridges are numbered along the chain shown (N, C = ends). [ ]: non-standard residue; d: D form. The star is where a group is joined. Ethylenediamine = C(CN[*:2])N[*:1]; Aad = N[C@@H](CCCC(=O)O)C(=O)O; Pen = CC(C)(S)[C@H](N)C(=O)O; dOrn = NCCC[C@@H](N)C(=O)O; NH(CH2)5NH2 = NCCCCCN*; NH(CH2)4NH2 = NCCCCN*

Legend:
[1] = target: T1, Vitronectin Receptor (αvβ3) (Homo sapiens, UniProt P05106+P06756); test: Human Vitronectin-Vitronectin Receptor (αvβ3) ELISA Assay; assay type: binding; details: purified human αvβ3, vitronectin-coated plates; read-out: ELISA IC50 Vitronectin VnR
T1 construct: Human vitronection receptor (VnR) is purified from human placenta; from tissue; host or cells: human placenta
Excerpt: Human vitronectin (Vn) is isolated from human plasma and purified by affinity chromatography by the method of Yatohgo et. al., (Cell Structure and Function 13:281-292 [1988]).
Human vitronection receptor (VnR) is purified from human placenta by the method of Pytela et al., (Methods Enzymol., 144:475 [1987]). Alternatively the αvβ3 receptor can be purified from some cell lines (e.g., human embryonic kidney 293 cells) transfected with DNA sequences for both the αv and β3 subunits. The subunits are purified by employing octylglucoside extraction followed by Con-A, Heparin-Sepharose, and S-300 Chromatography.
Anti-GP IIb IIIa monoclonal antibodies specific for human GP IIIa are prepared by the method of Newman et al. (Blood, 65:227-232 [1985]), or a similar procedure. This mouse Mab is specific for the β3 subunit of the vitronectin receptor.
Rabbit Fab 2 anti-mouse Fc fragment horse radish peroxidase conjugate (anti-MuFc HRP) is obtained from PelFreeze (cat. no. 715305-1).
Maxisorp microtiter plates are coated with 2 μg/ml human vitronectin dissolved in PBS ([…]) and stored overnight at 4° C. The plates are washed two times with PBS-0.05% Tween-20 (wash buffer) and blocked by incubating with about 150 μl/well of assay buffer (1%, BSA [RIA grade or better] in 50 mM Tris-HCl, 100 mM NaCl, 1 mM MgCl2, CaCl2, MnCl2 pH 7.4) for 60 minutes. Dilutions of standards are prepared and putative inhibitors (Table 3) are dissolved in assay buffer. The blocked plates are emptied and 25 μl/well of inhibitor or standard solution is added to each well. Twenty-five μl of a 30 μg/ml solution of purified αvβ3 in assay buffer is pipetted into the coated plate. The final concentration of receptor in the assay well is about 15 μg/ml. The plate is incubated on a shaker for 60 minutes. Meanwhile, for each microtite plate, 6 ml buffer solution containing 1.5 μg/ml of mouse monoclonal antibody specific for β3 is prepared. To this solution is added μl of the secondary antibody, which is anti-mouse-Fc-HRP antibody conjugate. For example, for one plate, prepare 6 ml of a 1.5 μg/ml mouse Mab solution to which is added 1 μl of anti-mouse-Fc-HRP antibody stock, (this represents a 1:6000 dilution of the antibody - HRP conjugate). This mixture is allowed to incubate during the receptor-inhibitor incubation. The assay plates are washed 4 times with PBS-Tween and 50 μl/well of the antibody mixture is then pipetted into the plate for a 60 minute incubation. The plate is washed 4 times and the color reaction is developed with 50 μl/well of 0.67 mg/ml o-phenyldiamine in PBS containing 0.012% H2 O2. Alternatively, 16 mM citric acid, 50 mM Na2 PO4 at pH 5.0 can be used as a substrate buffer. The reaction is stopped with 50 μl/well 1M H2 SO4. The plates are read at 492-405 nm and the data analyzed by four-parameter fit.

[2] = target: human platelet rich plasma (PRP) (Homo sapiens, UniProt P05106+P08514); test: In Vitro Human Platelet Aggregation Assay; assay type: cell-based; details: human PRP; read-out: Human Platelet Aggregation IC50
Outline: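 Citrated human PRP, diluted with PPP to about 300,000 platelets/μl from donors free of aspirin for two weeks, was preincubated with inhibitor or PBS for 5 minutes at 25° C. Aggregation was then triggered by collagen 1 μg/ml, U46619 100 ng/ml or ADP 17 μM and followed by light transmission.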

GP IIb IIIa = GP IIb IIIa (Homo sapiens, UniProt P05106+P08514); test: GP IIb IIIa -von Willebrand factor (vWF) ELISA Assay; assay type: binding; design: GP IIb IIIa, prepared by the method of Fitzgerald et al; from tissue; details: GP IIb IIIa-coated plates, vWF; read-out: ELISA IC50 GPIIb IIIa vWF
Protocol: Microtiter plates are coated with 1.0 μg/ml GP IIb IIIa, prepared by the method of Fitzgerald et al., (Anal. Biochem. 151:169-177 [1985]) and allowed to incubate overnight in coat buffer. The plates are then washed three times in wash buffer (0.05% Tween 20 in PBS) and 150 μl of assay buffer is added and allowed to incubate for 1-2 hours at room temperature on plate shaker. The plates are washed three times and 50 μl of 2x inhibitor in assay buffer (Assay buffer: 0.5% BSA/50 mM Tris, 100 mM NaCl, 1.0 mM CaCl2, 1.0mM MgCl2, 1.0 mM MnCl2; coat buffer is the same but without BSA) is added. Fifty μl of 4.0 μg/ml vWF (prepared as described by Ledford et al., Thrombosis and Haemostasis, 64(4): 569-575 [1990]) in assay buffer is then added and allowed to incubate for one hour at room temperature on plate-shaker. The plates are washed three times and the antibody mixture is added (1:5000 of mouse anti-vWF and 1:5000 of rabbit-anti-mouse-Fc-HRP, both commercially available) in assay buffer and incubated for 1 hour at room temperature on plate-shaker. Plates are again washed three times and 100 μl of substrate solution (10 mg OPD, 6.5 μl H2 O2, 15 ml phosphate citrate buffer) is added and incubated at room temperature. The color change of OPD/H2 O2 reagent is read at 492 nm with a 405 nm reference wavelength on the filter photometer.

T1 sequence (P06756 31-889 limits assumed): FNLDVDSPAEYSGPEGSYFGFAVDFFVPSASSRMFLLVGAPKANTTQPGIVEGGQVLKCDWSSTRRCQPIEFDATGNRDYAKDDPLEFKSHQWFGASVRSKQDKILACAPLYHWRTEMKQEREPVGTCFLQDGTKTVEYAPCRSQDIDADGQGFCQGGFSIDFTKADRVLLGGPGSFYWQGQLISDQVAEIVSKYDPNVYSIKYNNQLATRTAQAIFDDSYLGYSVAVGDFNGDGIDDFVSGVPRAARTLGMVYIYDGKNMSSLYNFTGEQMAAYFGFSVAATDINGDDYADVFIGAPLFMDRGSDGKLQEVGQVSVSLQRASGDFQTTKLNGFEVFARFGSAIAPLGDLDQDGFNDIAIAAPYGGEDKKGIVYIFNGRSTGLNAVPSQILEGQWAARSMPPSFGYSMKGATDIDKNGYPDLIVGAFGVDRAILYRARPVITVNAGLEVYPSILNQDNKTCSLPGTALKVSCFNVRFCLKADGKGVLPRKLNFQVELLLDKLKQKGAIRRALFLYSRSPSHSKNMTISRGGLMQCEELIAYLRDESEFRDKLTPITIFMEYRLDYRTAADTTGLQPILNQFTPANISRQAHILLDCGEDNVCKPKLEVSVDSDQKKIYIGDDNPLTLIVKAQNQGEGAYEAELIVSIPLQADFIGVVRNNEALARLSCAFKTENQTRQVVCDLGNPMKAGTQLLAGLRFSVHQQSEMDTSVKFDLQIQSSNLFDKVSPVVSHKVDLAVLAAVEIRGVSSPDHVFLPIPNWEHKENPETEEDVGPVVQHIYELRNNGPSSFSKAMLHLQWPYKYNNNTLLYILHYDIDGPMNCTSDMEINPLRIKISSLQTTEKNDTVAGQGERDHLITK
T1 sequence (P06756 891-1048 partner limits assumed): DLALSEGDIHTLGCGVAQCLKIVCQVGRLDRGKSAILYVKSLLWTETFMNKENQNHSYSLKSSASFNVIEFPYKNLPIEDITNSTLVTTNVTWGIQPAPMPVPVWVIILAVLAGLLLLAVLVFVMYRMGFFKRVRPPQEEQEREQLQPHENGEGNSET
T1 sequence (P05106 27-788): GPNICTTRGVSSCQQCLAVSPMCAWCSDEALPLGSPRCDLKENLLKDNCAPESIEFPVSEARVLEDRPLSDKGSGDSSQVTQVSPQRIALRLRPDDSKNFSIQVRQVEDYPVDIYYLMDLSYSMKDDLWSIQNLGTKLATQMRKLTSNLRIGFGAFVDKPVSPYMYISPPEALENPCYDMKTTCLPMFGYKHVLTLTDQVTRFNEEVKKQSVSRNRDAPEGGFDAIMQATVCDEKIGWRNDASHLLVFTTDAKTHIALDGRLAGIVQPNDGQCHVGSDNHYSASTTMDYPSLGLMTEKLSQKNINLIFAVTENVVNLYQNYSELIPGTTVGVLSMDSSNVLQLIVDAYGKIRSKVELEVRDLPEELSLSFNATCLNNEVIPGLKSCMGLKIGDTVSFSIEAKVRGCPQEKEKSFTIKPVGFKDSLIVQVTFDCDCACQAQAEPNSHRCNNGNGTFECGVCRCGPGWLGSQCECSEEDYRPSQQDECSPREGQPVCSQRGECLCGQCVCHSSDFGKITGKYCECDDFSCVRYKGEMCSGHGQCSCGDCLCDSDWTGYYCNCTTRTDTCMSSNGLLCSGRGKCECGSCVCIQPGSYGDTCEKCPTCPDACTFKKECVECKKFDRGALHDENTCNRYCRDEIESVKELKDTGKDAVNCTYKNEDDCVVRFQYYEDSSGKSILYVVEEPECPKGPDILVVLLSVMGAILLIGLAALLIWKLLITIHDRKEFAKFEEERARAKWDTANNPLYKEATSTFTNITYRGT
Chain of GP IIb IIIa (P08514 32-887 limits assumed): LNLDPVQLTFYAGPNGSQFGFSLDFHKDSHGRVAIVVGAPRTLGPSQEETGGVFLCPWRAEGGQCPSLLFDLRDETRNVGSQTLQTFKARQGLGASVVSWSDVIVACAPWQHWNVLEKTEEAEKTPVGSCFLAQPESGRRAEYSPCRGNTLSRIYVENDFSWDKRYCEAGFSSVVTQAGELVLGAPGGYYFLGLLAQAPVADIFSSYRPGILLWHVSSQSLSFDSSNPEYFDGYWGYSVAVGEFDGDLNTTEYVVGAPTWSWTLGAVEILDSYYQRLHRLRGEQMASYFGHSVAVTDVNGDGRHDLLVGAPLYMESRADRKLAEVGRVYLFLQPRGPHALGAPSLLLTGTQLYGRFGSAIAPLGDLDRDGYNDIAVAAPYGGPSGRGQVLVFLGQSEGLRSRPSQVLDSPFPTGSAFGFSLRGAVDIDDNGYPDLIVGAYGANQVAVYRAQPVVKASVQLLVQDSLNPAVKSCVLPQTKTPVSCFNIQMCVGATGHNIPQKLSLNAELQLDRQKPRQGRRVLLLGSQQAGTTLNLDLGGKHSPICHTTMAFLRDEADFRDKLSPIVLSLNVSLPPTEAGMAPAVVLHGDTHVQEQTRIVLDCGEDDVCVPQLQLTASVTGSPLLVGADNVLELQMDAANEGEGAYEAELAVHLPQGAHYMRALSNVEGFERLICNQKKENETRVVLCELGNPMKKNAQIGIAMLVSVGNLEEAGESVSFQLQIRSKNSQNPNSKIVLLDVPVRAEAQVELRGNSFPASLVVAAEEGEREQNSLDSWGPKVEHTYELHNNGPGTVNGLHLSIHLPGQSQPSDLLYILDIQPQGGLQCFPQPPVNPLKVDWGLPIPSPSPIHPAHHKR
Chain of GP IIb IIIa (P08514 891-1039 partner limits assumed): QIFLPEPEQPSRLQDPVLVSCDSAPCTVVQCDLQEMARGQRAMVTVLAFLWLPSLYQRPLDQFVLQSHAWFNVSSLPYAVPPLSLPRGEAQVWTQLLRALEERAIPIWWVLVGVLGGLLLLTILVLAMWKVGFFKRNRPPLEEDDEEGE
Chain of GP IIb IIIa (P05106 27-788): as the sequence (P05106 27-788) above
Chain of human platelet rich plasma (PRP) (P08514 32-1039): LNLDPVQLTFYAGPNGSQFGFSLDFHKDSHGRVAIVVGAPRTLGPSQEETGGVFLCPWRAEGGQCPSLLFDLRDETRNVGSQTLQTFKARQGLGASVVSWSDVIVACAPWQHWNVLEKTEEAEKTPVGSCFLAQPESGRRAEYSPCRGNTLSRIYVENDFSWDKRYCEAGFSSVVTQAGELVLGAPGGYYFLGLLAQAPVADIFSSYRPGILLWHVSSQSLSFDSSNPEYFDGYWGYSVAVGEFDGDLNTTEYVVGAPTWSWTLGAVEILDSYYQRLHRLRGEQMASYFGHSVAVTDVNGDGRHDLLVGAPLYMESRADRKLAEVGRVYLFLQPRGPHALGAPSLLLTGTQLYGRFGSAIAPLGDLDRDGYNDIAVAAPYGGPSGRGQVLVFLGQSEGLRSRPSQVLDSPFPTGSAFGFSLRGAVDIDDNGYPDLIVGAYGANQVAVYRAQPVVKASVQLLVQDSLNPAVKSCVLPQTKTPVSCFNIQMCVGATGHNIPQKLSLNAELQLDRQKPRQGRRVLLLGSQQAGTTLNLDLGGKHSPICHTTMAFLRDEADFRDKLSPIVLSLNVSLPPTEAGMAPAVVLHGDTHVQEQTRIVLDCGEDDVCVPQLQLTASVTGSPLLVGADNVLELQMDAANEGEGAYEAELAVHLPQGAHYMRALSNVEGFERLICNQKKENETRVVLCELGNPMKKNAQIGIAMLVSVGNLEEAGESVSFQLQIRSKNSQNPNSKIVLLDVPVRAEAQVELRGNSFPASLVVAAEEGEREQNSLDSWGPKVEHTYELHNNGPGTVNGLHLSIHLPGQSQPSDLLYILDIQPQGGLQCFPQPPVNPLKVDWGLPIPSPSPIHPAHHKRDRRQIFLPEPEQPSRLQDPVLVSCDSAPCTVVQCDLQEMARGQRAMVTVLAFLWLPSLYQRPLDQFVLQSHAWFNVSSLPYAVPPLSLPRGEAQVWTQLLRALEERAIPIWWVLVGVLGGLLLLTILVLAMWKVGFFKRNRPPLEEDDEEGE
Chain of human platelet rich plasma (PRP) (P05106 27-788): as the sequence (P05106 27-788) above

SMILES | IC50 [1] | IC50 [2] | IC50 (GP IIb IIIa)
N=C(N)NCCC[C@@H]1NC(=O)[C@@H](Cc2ccc(O)cc2)NC(=O)C(CCCCN)SC[C@@H](C(=O)O)NC(=O)[C@H](CC(=O)O)NC(=O)CNC1=O (single isomer, unassigned) [9/10, cyclo-S-2-L-(6-aminocaproyl)-Lys--dTyr--Arg--Gly--Asp--Cys--OH] | 9.6 nM | 498 nM | 0.785 nM
N=C(N)NCCC[C@H](NC(=O)[C@@H]1CCCC(=O)N[C@H](Cc2ccc(O)cc2)C(=O)N[C@@H](CCCNC(=N)N)C(=O)NCC(=O)N[C@@H](CC(=O)O)C(=O)N1)C(N)=O [10/19, cyclo(1-5)dTyr--Arg--Gly--Asp--L-α-aminoadipic acid-Arg--NH2] ([dY]RGD[Aad]R-NH2; lactam N-5) | 32 nM | 180 nM and 205 nM | 2.9 nM
N=C(N)NCCC[C@@H]1NC(=O)[C@@H](Cc2ccc(O)cc2)NC(=O)C(CCCCN)SC[C@@H](C(=O)O)NC(=O)[C@H](CC(=O)O)NC(=O)CNC1=O (single isomer, unassigned) [9/11, cyclo-S-2-L-(6-aminocaproyl)-Lys--dTyr--Arg--Gly--Asp--Cys--OH] | 11.2 nM | 3180 nM | 6.95 nM
CC1(C)SCC(=O)N[C@H](Cc2ccc(O)cc2)C(=O)N[C@@H](CCCCN)C(=O)NCC(=O)N[C@@H](CC(=O)O)C(=O)N[C@@H]1C(=O)N[C@@H](CCCCN)C(N)=O [7/17, cyclo-S-acetyl-dTyr--Lys--Gly--Asp--Pen--Lys--NH2] ({CH2CO}-[dY]KGD[Pen]K-NH2; thioether N-5) | 100000 nM | 90 nM | 73.1 nM
N=C(N)NCCC[C@@H]1NC(=O)[C@@H](Cc2ccc(O)cc2)NC(=O)CSC[C@@H](C(=O)NCCCCCN)NC(=O)[C@H](CC(=O)O)NC(=O)CNC1=O [8/13, cyclo-S-acetyl-dTyr--Arg--Gly--Asp--Cys--NH--X (X = pentylamine)] ({CH2CO}-[dY]RGDC-{NH(CH2)5NH2}; thioether N-5) | 32 nM | 590 nM | 5.3 nM
N=C(N)NCCC[C@@H]1NC(=O)[C@@H](Cc2ccc(O)cc2)NC(=O)CSC[C@@H](C(=O)NCCN)NC(=O)[C@H](CC(=O)O)NC(=O)CNC1=O [8/23, cyclo-S-acetyl-dTyr--Arg--Gly--Asp--Cys--NH--X (X = ethyl amine)] ({CH2CO}-[dY]RGDC-Ethylenediamine; thioether N-5) | 35 nM | 470 nM | 4.67 nM
CC1(C)SCC(=O)N[C@H](Cc2ccc(O)cc2)C(=O)N[C@@H](CCCCN)C(=O)NCC(=O)N[C@@H](CC(=O)O)C(=O)N[C@@H]1C(=O)N[C@@H](CCCNC(=N)N)C(N)=O [7/16, cyclo-S-acetyl-dTyr--Lys--Gly--Asp--Pen--Arg--NH2] ({CH2CO}-[dY]KGD[Pen]R-NH2; thioether N-5) | 120000 nM | 500 nM and 506 nM | 53.5 nM
N=C(N)NCCC[C@@H]1NC(=O)[C@@H](Cc2ccc(O)cc2)NC(=O)CSC[C@@H](C(=O)N[C@H](CCCN)C(N)=O)NC(=O)[C@H](CC(=O)O)NC(=O)CNC1=O [7/6, cyclo-S-acetyl-dTyr--Arg--Gly--Asp--Cys--dOrn--NH2] ({CH2CO}-[dY]RGDC[dOrn]-NH2; thioether N-5) | 55 nM | 1180 nM | 1.92 nM
N=C(N)NCCC[C@@H]1NC(=O)[C@@H](Cc2ccc(O)cc2)NC(=O)CCC[C@@H](C(=O)N[C@@H](CCCCN)C(N)=O)NC(=O)[C@H](CC(=O)O)NC(=O)CNC1=O [10/20, cyclo(1-5)dTyr--Arg--Gly--Asp--L-α-aminoadipic acid-Lys--NH2] ([dY]RGD[Aad]K-NH2; lactam N-5) | 20 nM | 183 nM | 2.74 nM
N=C(N)NCCC[C@@H]1NC(=O)[C@@H](Cc2ccc(O)cc2)NC(=O)CSC[C@@H](C(=O)NCCCCN)NC(=O)[C@H](CC(=O)O)NC(=O)CNC1=O [8/12, cyclo-S-acetyl-dTyr--Arg--Gly--Asp--Cys--NH--X (X = butylamine)] ({CH2CO}-[dY]RGDC-{NH(CH2)4NH2}; thioether N-5) | 70 nM | 390 nM | 5.4 nM
